Values joined by “and” are separate entries in the source; they are usually repeats but may differ in a detail not shown here. Identical values can stand only once. “Also recorded” adds a separate entry of the source. Like-named read-outs stand apart in the source and are kept apart here.
Assays:
[1] = Comment on salt form (Table 3); format: physicochemical; settings: TFA salt
NAD+ and NADH levels = NAD+ and NADH levels in primary embryonic cortical neurons (NAD+/NADH-GLO assay); format: cell-based, mouse; settings: among C687-C695; 100 nM, 2 μM and 5 μM
Experimental: FIGS. 14A and 14B are graphs plotting NAD^+ and NADH levels (FIG. 14A) or the NAD^+/NADH ratio (FIG. 14B) in primary embryonic cortical neurons after treatment with the indicated compounds. Neurons were seeded on 96-well plates at 30,000 cells per well. Seven days later, cells were treated with each compound at 2 μM. NAD^+ and NADH levels were measured 24 hours later using the bioluminescent NAD^+/NADH-GLO assay (Promega; Madison, WI). NAD^+ and NADH levels are expressed as a percent of vehicle treated (control) cells (FIG. 14A). All experiments were performed in 6 replicates.
FIGS. 18A-18C are graphs plotting the level of NAD+ (FIG. 18A), the level of NADH (FIG. 18B), and the ratio of NAD+/NADH (FIG. 18C) in primary embryonic cortical neurons that were seeded on a 96-well plate at 30,000 cells per well and treated seven days later with the indicated compounds at concentrations 100 nM, 2 μM and 5 μM. NAD+, NADH, and NAD+/NADH ratio were measured using a bioluminescent NAD+/NADH-GLO assay (Promega). All experiments were performed in 6 replicates.

MC65 cells = assay: Efficacy against Aβ toxicity in MC65 Tet on/off cells (MTT assay); format: cell-based; settings: for cell protective activity in Aβ-producing MC65 cells: 2.5 μM and 5 μM, compared to CP2; for EC50: nonlinear regression
Experimental: FIGS. 4A and 4B are a pair of graphs plotting survival of MC65 cells after treatment with the indicated compounds, in the presence (Tet/off) or absence (Tet/on) of Aβ expression. MC65 cells were cultured for 72 hours in the presence (on) or absence (off) of tetracycline in OPTI-MEM media without serum. […] Cell viability was measured with an MTT assay 72 hours later. Experiments were performed in triplicates. Every 96-well plate had its own on/off control. Four experimental compounds were tested per each plate. Experiments were repeated independently twice.
(§1) FIGS. 5A and 5B are a pair of graphs plotting survival of MC65 cells after treatment with the indicated compounds, in the presence (Tet/off) or absence (Tet/on) of Aβ expression. MC65 cells were cultured for 72 hours in the presence (on) or absence (off) of tetracycline in OPTI-MEM media without serum. Cells (Tet/on and Tet/off) at the time of plating were treated every 24 hours with vehicle (0.05% final DMSO) or experimental compounds (FIG. 5A, C458-C461; FIG. 5B, C462-C465) at 2.5 μM and 5 μM. Cell viability was measured with an MTT assay 72 hours later. Experiments were performed in triplicates. Every 96-well plate had its own on/off control. Four experimental compounds were tested per each plate. Experiments were repeated independently twice.
as §1, with “FIG. 6A is” for “FIGS. 5A and 5B are”, “graph” for “pair of graphs”, “(C470-C473)” for “(FIG. 5A, C458-C461; FIG. 5B, C462-C465)”, “twice. […] Toxicity of C463 under the same experimental conditions is shown for comparison. Cells were treated with 5 μM of each compound.” for “twice.”
FIGS. 9A-9D are a series of graphs plotting the half maximal effective concentration (EC50) for each of four experimental compounds against Aβ toxicity in MC65 Tet on/off cells. FIG. 9A, C455; FIG. 9B, C458; FIG. 9C, C460; FIG. 9D, C472.
FIGS. 11A and 11B are graphs plotting survival of MC65 cells cultured for 72 hours in the presence (on; FIG. 11A) or absence (off, FIG. 11B) of tetracycline in OPTI-MEM media without serum. Cells (Tet/on and Tet/off) at the time of plating were treated with either vehicle (0.05% final DMSO) or experimental compounds at 2.5 μM every 24 hours. Cell viability was measured with an MTT assay 72 hours later. Experiments were performed in triplicate, and every 96-well plate had its own on/off control. Four experimental compounds were tested per plate. Experiments were repeated independently twice.
FIGS. 15A and 15B are graphs plotting percent survival of MC65 cells cultured in the presence of tetracycline (Tet-On) (FIG. 15A) or without tetracycline (Tet-off) (FIG. 15B) in OPTI-MEM media without serum. […] Cell viability was measured with an MTT assay 72 hours after plating. Experiments were performed in triplicate, and were repeated independently twice.
The efficacy of all 24 compounds against Aβ toxicity was evaluated in MC65 cells. […] The viability of MC65 cells expressing Aβ (Tet/off, 40% viability) or not expressing Aβ (Tet/on, 100% viability) was measured after treatment with individual compounds. Results for all 24 compounds against Aβ toxicity are presented in FIGS. 4A, 4B, 5A, 5B, 6A, and 6B.
To further characterize the efficacy of these four compounds, the half maximal effective concentration (EC50) against Aβ toxicity in MC65 cells was measured using an MTT assay. […]

ATP production = assay: ATP levels in primary embryonic cortical neurons; format: cell-based, mouse; settings: 10 nM to 5 μM, 24 hours
Experimental: FIGS. 12A and 12B are a pair of graphs plotting ATP levels in primary embryonic cortical neurons that were seeded on 96-well plates at 30,000 cells per well and treated with the indicated compounds at concentrations ranging from 10 nM to 5 μM, as indicated. ATP levels were measured 24 hours later using an ATP determination Kit (Life Technologies; Carlsbad, CA). ATP levels are expressed as a percent of vehicle treated (control) cells. All experiments were performed twice in 6 replicates.
FIG. 17 is a graph plotting ATP levels in primary embryonic cortical neurons after seeding on a 96-well plate at 30,000 cells per well and being treated seven days later with the indicated compounds at concentrations of 100 nM, 2 μM, and 5 μM. ATP levels were measured 24 hours after treatment using the bioluminescent CellTiter-GLO 2 assay (Promega, Madison, WI). All experiments were performed in 6 replicates.
To further characterize these nine new compounds, Complex I activity was measured in isolated mitochondria, and levels of ATP, NAD+, and NADH were measured in primary mouse embryonic cortical neurons (FIGS. 16-18).

[2] = tested on: P++ MEFs (accelerated aging phenotype); assay: Growth of P++ mouse embryonic fibroblasts (MTT assay); format: cell-based; settings: 5 μM or 50 μM
Text: (§2) FIGS. 20A-20G are a series of graphs plotting the effect of the indicated compounds on survival of various cancer cells vs. control. FIG. 20A, HeLa cervical cancer cells; FIG. 20B, Panc1 pancreatic cancer cells; FIG. 20C, P-WT: mouse embryonic fibroblasts (MEFs; control); FIG. 20D, P++: MEFs; FIG. 20E, p53−/− ms T-cell lymphoma (TCL) cells; FIG. 20F, Patu pancreatic cancer cells; FIG. 20G, Su pancreatic cancer cells.
(§3) The following […] cell lines were used: HeLa (cervical cancer, FIG. 20A); Panc1 (pancreatic cancer, FIG. 20B); P-WT MEFs (control, FIG. 20C), P++ MEFs (accelerated aging phenotype, FIG. 20D) p53−/− ms TCL (FIG. 20E); Patu (pancreatic cancer, FIG. 20F), and Su (pancreatic cancer, FIG. 20G).

[3] = tested on: cancer cell lines (HeLa, Panc1, p53−/− ms TCL, Patu, Su); assay: Survival of cancer cell lines (MTT assay); format: cell-based, human; settings: 5 μM or 50 μM, particularly at the higher dose
Text: as §2, §3

[4] = In vivo toxicity and histology of C458 in WT mice; design: species or system mouse; settings: 50 mg/kg for one month ad libitum in drinking water
Experimental: To evaluate the toxicity of C458 in vivo, 2-month old breeding WT mice were treated with 50 mg/kg of C458 via drinking water. Untreated littermates were used as controls. After one month of treatment, adult and newborn animals were sacrificed and tissue was collected for histological examination.

[5] = PK of C458 in mice, plasma and brain by LC-MS/MS; format: in vivo, mouse; settings: for Brain Concentration / Plasma Concentration / concentration at 0.5 h / concentration at 1 h / concentration at 2 h: single mouse; for concentration at 0.5 h / concentration at 1 h / concentration at 2 h / half-life / Kp: mouse; for concentration at 0.5 h / concentration at 1 h / concentration at 2 h: 2 mg/kg
Experimental: FIG. 10 is a graph plotting the elimination rate for C458 in brain and plasma of mice treated with 2.5 mg/kg of the compound via intrafemoral vein injection. Animals were sacrificed at 30 minutes, 1 hour, and 2 hours post injection.
The feasibility of developing the C458 series was evaluated by determining the in vivo PK profile for C458. Re-synthesized C458 was administered intravenously to wild type mice at 2 mg/kg. Frozen serum and brain tissue samples were analyzed using a bioanalytical LC-MS/MS method.
A rough estimation of elimination rate and half-life of C458 was determined in vivo by delivering a dose of 2.5 mg/kg to each mouse via intrafemoral vein injection. Each group of animals (n=2) was sacrificed at 30 minutes, 1 hour, and 2 hours post injection. Blood and brain tissue was collected, flash frozen, and the concentration of C458 was estimated using a LC-MS/MS assay with a linear calibration curve from 1 ng/ml to 1 ug/ml in both plasma and brain.
For rough estimation of elimination rate and half-life, a one-compartment model and the first rate elimination was assumed. Plotting (Ln) of concentration vs. time provided the elimination rate and half-life of C458 in plasma and the brain (FIG. 10).

## Cc1cccc(O[C@@H]2CCC[C@H](C(C)CNCc3ccncc3)C2)c1 (stereo partly drawn)
[1]
  Comments (salt form): Highly hygroscopic

## Cc1cccc(O[C@@H]2CCC[C@H](C(C)CN(Cc3ccncc3)C(C)C)C2)c1 (stereo partly drawn) [Compound C694]
NAD+ and NADH levels
  efficacy in increasing NADH and decreasing NAD+/NADH ratio: highest efficacy

## Cc1cccc(O[C@@H]2CCC[C@H](C(C)CN(C)Cc3ccncc3)C2)c1 (stereo partly drawn) [Compound C693]
NAD+ and NADH levels
  efficacy in increasing NADH and decreasing NAD+/NADH ratio: highest efficacy

## Cc1cc2c(c(=O)o1)C=C1CCN(C(=O)Cc3cccc(O)c3)C[C@@H]1O2 [Compound C460]
MC65 cells; 72 hours
  cell protective activity in Aβ-producing MC65 cells: promising cell protective activity
MC65 cells; 5 μM, 72 hours, Tet/on and Tet/off
  efficacy against Aβ toxicity (representative images, FIG. 6B): efficacy
ATP production
  effect on ATP production: little or no effect
[2]
  growth of P++ MEFs: suppress the growth
[3]
  growth of cancer cell lines: suppressed growth of the cancer cell lines tested

## Cc1cccc(O[C@@H]2CCC[C@H](C(C)CNCc3ccncc3)C2)c1 (relative stereo) [Compound C458, cis-(N-(pyridin-4-ylmethyl)-2-(3-(m-tolyloxy)cyclohexyl)propan-1-amine)]
MC65 cells; 72 hours
  cell protective activity in Aβ-producing MC65 cells: promising cell protective activity
MC65 cells; EC50 against Aβ toxicity
  fold higher efficacy (lower EC50) of C458 than CP2: 20- to 30 fold and 30 fold
  fold higher efficacy of C458 than C455 and C460: 100 fold
MC65 cells; MC65, MTT assay
  EC50: ~4 nM
MC65 cells; MTT assay
  EC50: 3.59 nM
ATP production
  effect on ATP production: modestly reduced ATP production
[4]
  histology of adult WT mice: did not cause histological abnormalities
  pathology of newborn mice conceived by treated breeding WT mice: no pathological abnormalities were detected
[5]; 0.5 hr
  Brain Concentration: 390 ng/g
  Plasma Concentration: 41.4 ng/mL
[5]; 1 hr
  Brain Concentration: 149 ng/g
  Plasma Concentration: 15.2 ng/mL
[5]; 2 hr
  Brain Concentration: 76.4 ng/g
  Plasma Concentration: 10.3 ng/mL
[5]; from elimination rate and half-life in plasma and brain
  bioavailability: good bioavailability
[5]; mice, intravenous
  CNS penetration: significant CNS penetration; also recorded: penetrates the blood brain barrier and accumulates in the brain
[5]; brain, intravenous, 0.5 hr, read-out: Brain Concentration
  concentration at 0.5 h: 316 ng/g
[5]; brain, intravenous, 1 hr, read-out: Brain Concentration
  concentration at 1 h: 118 ng/g
[5]; brain, intravenous, 2 hr, read-out: Brain Concentration
  concentration at 2 h: 68.2 ng/g
[5]; brain, intravenous, 2.5 mg/kg intrafemoral vein injection, one-compartment model, first rate elimination, read-out: estimated half-life in brain
  half-life: 42 min
[5]; brain, intravenous, 2.5 mg/kg intrafemoral vein injection, read-out: concentration in the brain, times higher than in plasma
  Kp: 7 to 8
[5]; brain, iv, wild type mice, intravenously at 2 mg/kg, read-out: concentration in brain tissue, times higher (w/v) than in plasma
  Kp: 7 to 10
[5]; plasma, intravenous, 0.5 hr, read-out: Plasma Concentration
  concentration at 0.5 h: 43.7 ng/mL
[5]; plasma, intravenous, 1 hr, read-out: Plasma Concentration
  concentration at 1 h: 13 ng/mL
[5]; plasma, intravenous, 2 hr, read-out: Plasma Concentration
  concentration at 2 h: 9.83 ng/mL
[5]; plasma, intravenous, 2.5 mg/kg intrafemoral vein injection, one-compartment model, first rate elimination, read-out: estimated half-life in plasma
  half-life: 48 min
[5]; serum, iv, wild type mice, intravenously at 2 mg/kg, read-out: apparent t1/2 in the blood
  half-life: 48 min

## Cc1cc2c(c(=O)o1)C=C1CCN(C(C)CCc3ccc(O)cc3)C[C@@H]1O2 (stereo partly drawn) [Compound C455]
MC65 cells; 72 hours
  cell protective activity in Aβ-producing MC65 cells: promising cell protective activity
ATP production
  effect on ATP production: modestly reduced ATP production
[2]
  growth of P++ MEFs: suppress the growth
[3]
  growth of cancer cell lines: suppressed growth of the cancer cell lines tested
